The values below come from patent US12123010B2, “Plants having increased tolerance to herbicides” (BASF SE, priority 2017, dated 2024).

The experiment has as its system Transgenic T2 Corn plants harbouring PPO inhibitor tolerance trait and J553 non transgenic. Put plainly: Corn Trial, post spray, injury score 14 DAT. Format: in vivo. As to the method:
Immature embryos are transformed according to the procedure outlined in Peng et al. (WO2006/136596). Plants are tested for the presence of the T-DNA by Taqman analysis with the target being the nos terminator which is present in all constructs. Healthy looking plants are sent to the greenhouse for hardening and subsequent spray testing. The plants are individually transplanted into MetroMix 360 soil in 4″ pots. Once in the greenhouse (day/night cycle of 27° C./21° C. with 14 hour day length supported by 600 W high pressure sodium lights), they are allowed to grow for 14 days. TO or T1 plants are sprayed with a treatment of the uracilpyridines as disclosed SUPRA and photosynthesis inhibitor diuron as negative control. Herbicide injury evaluations are taken at 7, 14 and 21 days after treatment. Herbicide injury evaluations are taken 2, 7, 14 and 21 days post-spray to look for injury to new growth points and overall plant health. The top survivors are transplanted into gallon pots filled with MetroMix 360 for seed production.
Transgenic T2 Corn plants harbouring PPO inhibitor tolerance trait, were sprayed post with the indicated amount of uracilpyridine+1% (v/v) MSO. Evaluation performed 14 Days After Treatment (DAT) and shown as injury (0-9) relative to non-transgenic treated plants.
Injury Scale: 0-9, 0=no injury, 9=maximum injury. Note: segregating lines.

For the molecule `CCOC(=O)COc1ccccc1Oc1nc(-n2c(=O)cc(C(F)(F)F)n(C)c2=O)c(F)cc1Cl` [Uracilpyridine 4, ethyl 2-[2-[[3-chloro-5-fluoro-6-[3-methyl-2,6-dioxo-4-(trifluoromethyl)pyrimidin-1-yl]-2-pyridyl]oxy]phenoxy]acetate], the “injury (0-9)” value reads like this: (25 g/ha + 1% MSO) 7; (50 g/ha + 1% MSO) 7.
